Reference: PubChem BioAssay (NCI)
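48-hour exposure; five concentrations; linearly interpolated endpoints. GI50 is the concentration that inhibits growth by half. TGI denotes the concentration required for complete inhibition of growth.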

What was measured:
Assay in all cases: NCI tumour cell line growth inhibition, 48 h
RPMI-8226 leukemia = test system: RPMI-8226 leukemia
HOP-92 NSCLC = test system: HOP-92 NSCLC
A549 NSCLC = test system: A549 NSCLC
U251 CNS = test system: U251 CNS
CAKI-1 renal = test system: CAKI-1 renal
MOLT-4 leukemia = test system: MOLT-4 leukemia
NCI/ADR-RES ovarian = test system: NCI/ADR-RES ovarian
HCT-15 colon = test system: HCT-15 colon
PC-3 prostate = test system: PC-3 prostate
NCI-H522 lung = test system: NCI-H522 lung
OVCAR-4 ovarian = test system: OVCAR-4 ovarian
HOP-62 NSCLC = test system: HOP-62 NSCLC
K-562 leukemia = test system: K-562 leukemia
UACC-257 melanoma = test system: UACC-257 melanoma
TK-10 renal = test system: TK-10 renal
MDA-MB-435 = test system: MDA-MB-435
M14 melanoma = test system: M14 melanoma
HCT-116 colon = test system: HCT-116 colon
SW-620 colon = test system: SW-620 colon
KM12 colon = test system: KM12 colon
SK-MEL-5 melanoma = test system: SK-MEL-5 melanoma
MCF7 breast = test system: MCF7 breast
IGROV1 ovarian = test system: IGROV1 ovarian
SNB-75 CNS = test system: SNB-75 CNS
ACHN renal = test system: ACHN renal
SNB-19 CNS = test system: SNB-19 CNS
HCC-2998 colon = test system: HCC-2998 colon
COLO 205 colon = test system: COLO 205 colon
SK-OV-3 ovarian = test system: SK-OV-3 ovarian
A498 renal = test system: A498 renal

N#Cc1c(NC(=O)c2ccc(C(F)(F)F)cc2C(F)(F)F)sc2c1CCC(=O)C2
TGI (RPMI-8226 leukemia): 4110 nM
GI50 (HOP-92 NSCLC): 234 nM
TGI (HOP-92 NSCLC): 770 nM
GI50 (A549 NSCLC): 3290 nM
TGI (A549 NSCLC): 30000 nM
GI50 (U251 CNS): 800 nM
TGI (U251 CNS): 13200 nM
GI50 (CAKI-1 renal): 610 nM
TGI (CAKI-1 renal): 2120 nM
GI50 (MOLT-4 leukemia): 386 nM
TGI (MOLT-4 leukemia): 7210 nM
GI50 (NCI/ADR-RES ovarian): 623 nM
TGI (NCI/ADR-RES ovarian): 7140 nM
GI50 (HCT-15 colon): 335 nM
TGI (HCT-15 colon): 1390 nM
GI50 (PC-3 prostate): 249 nM
TGI (PC-3 prostate): 2360 nM
GI50 (NCI-H522 lung): 169 nM
TGI (NCI-H522 lung): 686 nM
GI50 (OVCAR-4 ovarian): 507 nM
TGI (OVCAR-4 ovarian): 1880 nM
GI50 (HOP-62 NSCLC): 3450 nM
TGI (HOP-62 NSCLC): 14000 nM
GI50 (K-562 leukemia): 275 nM
TGI (K-562 leukemia): > 40200 nM
GI50 (UACC-257 melanoma): 1500 nM
TGI (UACC-257 melanoma): 3630 nM
GI50 (TK-10 renal): 367 nM
TGI (TK-10 renal): 2190 nM
GI50 (MDA-MB-435): 888 nM
TGI (MDA-MB-435): 2980 nM
GI50 (M14 melanoma): 901 nM
TGI (M14 melanoma): 2840 nM
GI50 (HCT-116 colon): 345 nM
TGI (HCT-116 colon): 6640 nM
GI50 (SW-620 colon): 363 nM
TGI (SW-620 colon): 1610 nM
GI50 (KM12 colon): 468 nM
TGI (KM12 colon): 2330 nM
GI50 (SK-MEL-5 melanoma): 804 nM
TGI (SK-MEL-5 melanoma): 2080 nM
GI50 (MCF7 breast): 442 nM
TGI (MCF7 breast): 10800 nM
GI50 (IGROV1 ovarian): 894 nM
TGI (IGROV1 ovarian): 5520 nM
GI50 (SNB-75 CNS): 1460 nM
TGI (SNB-75 CNS): 4900 nM
GI50 (ACHN renal): 331 nM
TGI (ACHN renal): 1180 nM
GI50 (SNB-19 CNS): 3690 nM
TGI (SNB-19 CNS): 14100 nM
GI50 (HCC-2998 colon): 1660 nM
TGI (HCC-2998 colon): 5600 nM
GI50 (COLO 205 colon): 1310 nM
TGI (COLO 205 colon): 2720 nM
GI50 (SK-OV-3 ovarian): 2660 nM
TGI (SK-OV-3 ovarian): 7230 nM
GI50 (A498 renal): 13000 nM
TGI (A498 renal): 28100 nM
